Test results published in patent US8557331B2, “Antifouling method and composition using chromen-4-one derivatives” (The Hong Kong University of Science and Technology, priority 2008, dated 2013).
Converted amounts (≈) assume the structure as drawn.

Tests used:
[1] = test system: larval settlement of the barnacle Balanus amphitrite; assay: Bioassay for antifouling activity against larval settlement (cyprids, 24-well plate, 24 h)
Description: (§1) The larvae were reared in freshly filtered natural seawater (FSW, 0.45 μm, 32S salinity) and fed with Chaetoceros gracilis Schutt at 24° C. in the Coastal Marine Laboratory, the Hong Kong University of Science and Technology (HKUST). Larvae that were competent to settle (called cyprids) were stored for 2 days at 8° C. prior to being used in the bioassays. Ten μl of each test sample dissolved in dimethyl sulfoxide (DMSO) were transferred into a well in 24-well polystyrene plate after the addition of 1 ml of FSW. The control wells contained 1 ml of FSW and 10 μl of DMSO. About 15 cyprids were added in each well with triplicate samples being tested.
as §1, with “freshly filtered nature seawater (FSW,” for “freshly filtered natural seawater (FSW,”, “Technology (HKUST). Cyprids (competent larvae) were stored” for “Technology (HKUST). Larvae that were competent to settle (called cyprids) were stored”, “8° C. (aged cyprids) prior to” for “8° C. prior to”

[2] = Hydrolysis experiment of genistein (ASTM E895-89, HPLC); type: physicochemical; conditions: 50° C. in dark, a week
Description: The experiments were carried out according to the method described in ASTM (1993). Buffer solutions consisting of 20 mM of sodium acetate were prepared with adjusted pH level at 5, 7, and 9. FSW was the same as those used in bioassays. Artificial seawater (ASW) was prepared as van't Hoff formula (460 mM NaCl, 10.1 mM KCl, 9.2 mM CaCl2, 35.9 mM MgCl2, 17.5 mM MgSO4, 10 mM Tris-HCl, and pH 8.2). Test solution (900 ml) containing 4 μg genistein was divided into nine test glass tubes (100 ml each), and then the tubes were tightly capped. Immediately after preparation of the test solutions, three tubes were loaded onto a Sep-Pak tC18 ENV column (Waters, USA), preconditioned for use by eluting it with methanol and water under reduced pressure. The column after loading the test sample was eluted with water to remove any salts in the test samples, and was then eluted with 2.5 ml of DMSO. Thus, the eluate was 40 times more concentrated than the sample in the original test solution; this concentrated solution was subjected to HPLC analysis. The HPLC system (600, Waters, USA) was equipped with a photodiode array detector (996, Waters, USA) installed in tandem after outlet of the column (Phenomenex Luna 5λ C18 100A, 250×4.60 mm, 5 micron). The solvents used were (A) 5% acetonitrile and (B) 95% acetonitrile at the isocratic flow rates of (A) 0.53 ml min^−1 and (B) 0.47 ml min^−1 at 40° C., respectively. A volume of ten μl of elute was injected into the column using an autosampler (717plus, Waters, USA). The UV absorption at 1=260 nm was used for quantification. The analytical data were shown as the average value of triplicate analyses. The remaining six tubes were kept at 50° C. in the dark in an incubator for a period of four or seven days according to ASTM Procedure E895-89 (ASTM, 1993). After the incubations, each of three test samples was subjected to HPLC analysis, following the same concentration process as described above to determine the remaining concentration of genistein.

[3] = test system: barnacle Balanus amphitrite; assay: Field experiment: resin-based paint on PVC panels submerged at pier; type: in vivo
Description: Test compounds (genistein, Cu2O, or their mixture) were mixed with resin-based paint (Permoglaze, Akzo Nobel Decorative Coatings, Lancashire, UK) with addition of 15% of (w/w) xylene, and then sprayed on the surface of PVC panels (size: 10 cm×10 cm×0.5 cm). Genistein was incorporated into paint by 10 and 20% of the dry weight as the low and high concentrations, respectively. In the experiments of combination effects, both Cu2O and genistein at 10% of dry weight were added. The controls used was a resin based paint with addition of 15% (w/w) of xylene only. Each of the tested paints was mixed for more than 8 h before being spread onto panels. The thickness of each paint film was between 100 and 150 μm. The painted panels were air-dried completely prior to being tied to PVC frames and deployed vertically at a depth of 1-1.5 m at the pier of HKUST from March to June in 2007. The numbers of adult barnacle B. amphitrite on the surface were counted and the density on each panel was calculated after their submergences. Four replicates were tested for each sample.

[4] = Bioassay for antifouling activity against larval settlement (cyprids, 24-well plate, 24 h); conditions: Balanus amphitrite (barnacle, cyprid larvae), in vivo
Description: as §1
as §1, with “freshly filtered nature seawater (FSW,” for “freshly filtered natural seawater (FSW,”, “Technology (HKUST). Cyprids (competent larvae) were stored” for “Technology (HKUST). Larvae that were competent to settle (called cyprids) were stored”, “8° C. (aged cyprids) prior to” for “8° C. prior to”

[5] = Amphibalanus amphitrite, Table 2, larval settlement
[6] = Amphibalanus amphitrite, Table 2, larval settlement of Balanus amphitrite, mean ± standard deviation of at least three replicates
[7] = Table 2, LC50 used is the highest concentration causing <50% death of larvae
[8] = judged from LC50/EC50, standard of Avelin et al. (1993): nontoxic if higher than 10
[9] = single compound at 10% of dry weight of paint, three months submergence

Compound | EC50 [1, 5] | EC50 [1, 6] | LC50/EC50 [1, 7] | toxicity (in words) ([1]; in vivo) | further results
COc1c(OC)c(O)c2c(=O)c(OC)c(-c3ccc(O)cc3)oc2c1OC [Sample F-1, 4′,5-dihydroxy-3,6,7,8 tetramethoxy-flavone] | ~3 µg/mL (≈ 8.01 µM) | 3.4 ± 0.5 µg/mL (≈ 9.08 µM) | >14.7 | almost no toxicity | 
COc1ccc(-c2coc3c(OC)c(O)ccc3c2=O)cc1 [Sample F-2, 7-hydroxy-8,4′-dimethoxyisoflavone] |  | 13.3 ± 2.5 µg/mL (≈ 44.6 µM) | >7.50 |  | 
COc1ccc(-c2oc3cc(OC)c(OC)c(O)c3c(=O)c2OC)cc1O [Sample F-3] | ~3 µg/mL (≈ 8.01 µM) | 3 ± 0.4 µg/mL (≈ 8.01 µM) | >16.7 | almost no toxicity | 
COc1cc2oc(-c3ccc(O)cc3)c(OC)c(=O)c2c(O)c1OC [Sample F-4, 4′,5,-dihydroxy-3,6,7-trimethoxy-flavone] | ~3 µg/mL (≈ 8.71 µM) | 2.5 ± 0.3 µg/mL (≈ 7.26 µM) | >20.0 | almost no toxicity | 
C[C@@H]1O[C@@H](OC[C@H]2O[C@@H](Oc3c(-c4ccc(O)c(O)c4)oc4cc(O)cc(O)c4c3=O)[C@H](O)[C@@H](O)[C@@H]2O)[C@H](O)[C@H](O)[C@H]1O [Sample F-5, neoisorutin] |  |  | >5.0 |  | EC50 ([1]; Table 2, larval settlement of Balanus amphitrite, mean ± standard deviation of at least three replicates): 40.1 ± 3.4 µg/mL (≈ 65.7 µM)
O=c1c(O)c(-c2ccc(O)cc2)oc2cc(O)cc(O)c12 [Sample F-6, kaempferol] |  | 9.6 ± 1.4 µg/mL (≈ 33.5 µM) | >5.2 |  | 
COc1ccc(-c2oc3cc(OC)cc(O)c3c(=O)c2O)cc1 [Sample F-8, 3,5-dihydroxy-7,4′-dimethoxyflavone] |  | 11.8 ± 2.1 µg/mL (≈ 37.5 µM) | >4.2 |  | 
O=c1cc(-c2ccc(O)cc2)oc2cc(O)cc(O)c12 [Sample F-9, 4′,5,7-trihydroxy-flavone] | ~3 µg/mL (≈ 11.1 µM) | 3.1 ± 0.3 µg/mL (≈ 11.5 µM) | >16.1 |  | toxicity (in words) [1, 8]: almost no toxicity
O=c1cc(-c2ccc(O)c(O)c2)oc2cc(O)cc(O)c12 [Sample F-10] | ~3 µg/mL (≈ 10.5 µM) | 3.8 ± 0.4 µg/mL (≈ 13.3 µM) |  | almost no toxicity | LC50/EC50 ([1]; Balanus amphitrite, in vivo, 24 h): >13.2
O=c1c(-c2ccc(O)cc2)coc2cc(O)cc(O)c12 [Sample F-12, 4′,5,7-trihydroxy-isoflavone] | 3 µg/mL (≈ 11.1 µM) | 3 ± 0.3 µg/mL (≈ 11.1 µM) | >16.7 |  | genistein decomposed ([2]; artificial seawater (ASW)): ~35%; genistein decomposed ([2]; filtered natural seawater (FSW)): ~26%; genistein decomposed ([2]; pH 5.0 buffer solution): About 27%; genistein decomposed ([2]; pH 7.0 buffer solution): ~31%; genistein decomposed ([2]; pH 9.0 buffer solution): ~37%; density of barnacles fouled on the test panels ([3]; 10% of dry weight of paint, one month submergence, control 0.32 ± 0.039): 0.12 ± 0.031 adults cm^−2; density of barnacles fouled on the test panels ([3]; 10% of dry weight of paint, two months submergence, control 0.71 ± 0.053): 0.57 ± 0.055 adults cm^−2; density of barnacles fouled on the test panels ([3]; 20% of dry weight of paint, one month submergence, control 0.32 ± 0.039): 0.08 ± 0.027 adults cm^−2; density of barnacles fouled on the test panels ([3]; 20% of dry weight of paint, two months submergence, control 0.71 ± 0.053): 0.13 ± 0.029 adults cm^−2; density of barnacles fouled on the test panels [3, 9]: 0.77 ± 0.042 adults cm^−2; LC50 at 24 h [4]: > 50 µg/mL; EC50 ([1]; 24 h, genistein from Streptomyces fungicidicus, larval settlement, 24 h at 24° C., method of Rittschof et al. (1994)): 3 µg/mL (≈ 11.1 µM); concentration at which inhibitory activity against larvae settlement was observed (as low as) ([1]; FIG. 2): 0.5 µg/mL; LC50/EC50 ([1]; Table 2, genistein purified from extract of Genista tinctoria): > 16.7; larvae settled ([1]; concentration of 8 μg/ml, control 90% settlement): 10%; LC50/EC50 ([1]; genistein from Streptomyces fungicidicus): > 16.7; toxicity (in words) [1, 8]: nontoxic
COc1ccc(-c2oc3c(CC=C(C)C)c(O[C@@H]4O[C@H](CO)[C@@H](O)[C@H](O)[C@H]4O)cc(O)c3c(=O)c2O[C@@H]2O[C@@H](C)[C@H](O)[C@@H](O)[C@H]2O)cc1 [Sample F-16, icariin] |  | 35.3 ± 4.2 µg/mL (≈ 52.2 µM) | >2.8 |  | 
O=c1cc(-c2ccccc2)oc2cccc(O)c12 [Sample F-17, 5-monohydroxy-flavone] | ~3 µg/mL (≈ 12.6 µM) | 2.8 ± 0.3 µg/mL (≈ 11.8 µM) | >17.9 |  | toxicity (in words) [1, 8]: almost no toxicity
Cu2O [reference compound] |  |  |  |  | density of barnacles fouled on the test panels [3, 9]: 0.81 ± 0.06 adults cm^−2
